Experiment [1] addresses T1, Thromboxane A2 receptor (Homo sapiens) (UniProt P21731).
T1 sequence (whole entry): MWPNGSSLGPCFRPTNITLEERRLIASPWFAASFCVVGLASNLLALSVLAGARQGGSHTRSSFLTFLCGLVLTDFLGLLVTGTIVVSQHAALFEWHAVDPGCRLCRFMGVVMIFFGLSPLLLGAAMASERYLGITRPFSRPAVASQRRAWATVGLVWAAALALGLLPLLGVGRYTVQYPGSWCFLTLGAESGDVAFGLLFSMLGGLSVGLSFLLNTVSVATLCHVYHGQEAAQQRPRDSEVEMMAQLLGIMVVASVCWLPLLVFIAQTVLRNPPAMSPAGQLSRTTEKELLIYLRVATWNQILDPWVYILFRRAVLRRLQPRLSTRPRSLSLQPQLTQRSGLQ
The experiment in a line: TP receptor affinity, expressed as competition factor (CF) which is the ratio of IC50 of test to IC50 of standard.

Experiment [2] concerns the target T1, Thromboxane A2 receptor (Homo sapiens). The experiment can be described thus: Antiaggregatory potency relative to TP-receptor antagonist SQ 29548. It is filed as functional.
For experiment [3], the target named is T2, Prostacyclin receptor (Homo sapiens, UniProt P43119). The experiment in a line: (§1) Compound was tested for Prostanoid IP receptor affinity and expressed as competition factor (CF) which is the ratio of IC50 of test to IC50 of standard.
Experiment [4] is filed under the species Homo sapiens. The experiment in a line: Compound was tested for its ability to inhibit blood platelet aggregation induced by TP-receptor agonist U 46619. It is filed as functional.
Experiment [5] addresses T2, Prostacyclin receptor. The experiment is described as §1. The source holds these as a separate data set.
Experiment [6] is filed under the species Homo sapiens. The experiment in a line: Compound was tested for its ability to inhibit blood platelet aggregation induced by ADP. In kind it is functional.

pIC50: −log10 of the molar value. Some results are limits rather than exact numbers.

T2 sequence (P43119 whole entry): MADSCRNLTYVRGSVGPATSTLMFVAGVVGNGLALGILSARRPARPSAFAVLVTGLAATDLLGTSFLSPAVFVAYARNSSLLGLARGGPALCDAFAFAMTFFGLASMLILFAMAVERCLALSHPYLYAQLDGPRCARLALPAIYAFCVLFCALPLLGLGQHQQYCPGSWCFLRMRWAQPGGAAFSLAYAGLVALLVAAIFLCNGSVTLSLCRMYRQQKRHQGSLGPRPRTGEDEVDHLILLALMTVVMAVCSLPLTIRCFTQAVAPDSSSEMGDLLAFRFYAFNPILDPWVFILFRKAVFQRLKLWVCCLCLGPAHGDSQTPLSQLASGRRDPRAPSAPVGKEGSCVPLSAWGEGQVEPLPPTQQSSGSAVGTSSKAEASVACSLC

With `O=C(O)CCC/C=C1\C[C@H]2CC[C@H](/C=N/NC(=O)Nc3ccc([N+](=O)[O-])cc3)[C@H]2C1`, the CF in experiment [1] was determined as 2.2. In experiment [2], this compound yielded a Relative potency of 0.01.

For the compound `O=C(O)CCC/C=C1/C[C@H]2CC[C@H](/C=N/NC(=O)Nc3ccccc3)[C@H]2C1`, the CF in experiment [1] stood at 3. Moreover, in experiment [2], the Relative potency was determined as 0.002.

Regarding `O=C(O)CCC/C=C1/C[C@H]2CC[C@H](/C=N/NC(=O)Nc3ccc([N+](=O)[O-])cc3)[C@H]2C1`, the CF in experiment [1] came to 0.7. This compound also had a Relative potency in experiment [2] of 0.01.

Regarding `O=C(O)COC/C=C1\C[C@H]2C[C@@H](O)[C@H](/C=N/NC(=O)Nc3cccc(Cl)c3)[C@H]2C1`, the CF in experiment [1] amounted to 18. Besides, the Relative potency in experiment [2] is 0.03.

For the compound `O=C(O)COC/C=C1/C[C@H]2C[C@@H](O)[C@H](/C=N/NC(=O)Nc3ccc([N+](=O)[O-])cc3)[C@H]2C1`, the CF in experiment [1] was determined as 0.9. Moreover, the Relative potency in experiment [2] was found to be 1.

For `O=C(O)CCC/C=C1\C[C@H]2C[C@@H](O)[C@H](/C=N/NC(=O)Nc3ccc(Cl)c(Cl)c3)[C@H]2C1`, the CF in experiment [1] amounted to 0.8. Also, the Relative potency in experiment [2] came out at 0.038.

For `O=C(O)CC/C=C1/C[C@H]2C[C@@H](O)[C@H](/C=N/NC(=O)Nc3cccc(Cl)c3)[C@H]2C1`, in experiment [1], the CF is 2.4. The same compound registered a Relative potency in experiment [2] of 0.11.

As for `O=C(O)COC/C=C1\C[C@H]2C[C@@H](O)[C@H](/C=N/NC(=O)Nc3ccccc3)[C@H]2C1`, the CF in experiment [1] was found to be 138. The Relative potency in experiment [2] is 0.008.

Consider `O=C(O)COC/C=C1/C[C@H]2C[C@@H](O)[C@H](/C=N/NC(=O)Nc3ccc(Cl)c(Cl)c3)[C@H]2C1`, for which the CF in experiment [1] amounted to 0.7. In experiment [2], this compound returned a Relative potency of 0.33.

For the compound `O=C(O)CC/C=C1/C[C@H]2C[C@@H](O)[C@H](/C=N/NC(=O)Nc3ccc(Cl)c(Cl)c3)[C@H]2C1`, the CF in experiment [1] was determined as 0.8. For the same compound, the Relative potency in experiment [2] is 0.33.

On to `O=C(O)CCC/C=C1\C[C@H]2C[C@@H](O)[C@H](/C=N/NC(=O)Nc3cccc(Cl)c3)[C@H]2C1`, for which, in experiment [1], the CF was 1.6. In experiment [2], the Relative potency is 0.09.

With `O=C(O)COC/C=C1\C[C@H]2C[C@@H](O)[C@H](/C=N/NC(=O)Nc3ccc(Cl)c(Cl)c3)[C@H]2C1`, the CF in experiment [1] is 2.9. The compound also showed a Relative potency in experiment [2] of 0.11.

Regarding `O=C(O)COC/C=C1\C[C@H]2C[C@@H](O)[C@H](/C=N/NC(=O)Nc3ccc([N+](=O)[O-])cc3)[C@H]2C1`, the CF in experiment [1] worked out at 9.4. The Relative potency in experiment [2] was determined as 0.33.

A word on the pIC50: it is the negative decadic logarithm of the IC50, by convention in mol/L. On to `O=C(O)CCC/C=C1/C[C@H]2C[C@@H](O)[C@H](/C=N\OC(c3ccccc3)c3ccccc3)[C@H]2C1`, for which the CF in experiment [1] is 210. Also, in experiment [3], the IC50 result is reported as “NC”. This compound also registered a Relative potency in experiment [2] of 0.001. Moreover, the pIC50 in experiment [4] is 4.64.

Take `O=C(O)CCC/C=C1\C[C@H]2CC[C@H](/C=N/NC(=O)Nc3ccccc3)[C@H]2C1`: in experiment [1], the CF is 40. The compound also showed a Relative potency in experiment [2] of 0.0004.

On to `O=C(O)CC/C=C1\C[C@H]2C[C@@H](O)[C@H](/C=N/NC(=O)Nc3ccccc3)[C@H]2C1`, for which, in experiment [1], the CF turned out to be 454. In experiment [2], the Relative potency came to 0.0007.

With `O=C(O)CCC/C=C1\C[C@H]2C[C@@H](O)[C@H](/C=N/NC(=O)Nc3ccccc3)[C@H]2C1`, the CF in experiment [1] is 20. In experiment [2], the Relative potency is 0.005.

As for `O=C(O)CCC/C=C1/C[C@H]2C[C@@H](O)[C@H](/C=N/OCc3ccc(F)cc3)[C@H]2C1`, the CF is 500 in experiment [1] and 250 in experiment [5]. Also, the Relative potency in experiment [2] is 0.001. Further, the negative logarithm of the IC50 (pIC50) in experiment [4] is 4.85.

In the case of `O=C(O)CC/C=C1/C[C@H]2C[C@@H](O)[C@H](/C=N/NC(=O)Nc3ccccc3)[C@H]2C1`, the CF in experiment [1] was found to be 10. Also, the Relative potency in experiment [2] turned out to be 0.059.

Regarding `O=C(O)CC/C=C1\C[C@H]2C[C@@H](O)[C@H](/C=N/NC(=O)Nc3cccc(Cl)c3)[C@H]2C1`, the CF in experiment [1] worked out at 50. Further, the Relative potency in experiment [2] is 0.004.

As to `O=C(O)COC/C=C1/C[C@H]2C[C@@H](O)[C@H](/C=N/NC(=O)Nc3ccccc3)[C@H]2C1`, the CF in experiment [1] was found to be 16. In addition, the Relative potency in experiment [2] turned out to be 0.014.

Turning to `O=C(O)CCC/C=C1/C[C@H]2C[C@@H](O)[C@H](/C=N/OCc3ccccc3)[C@H]2C1`, the results for the CF in experiment [1] and in experiment [5] were 470 and 100, respectively. Also, the results for the pIC50 in experiment [6] and in experiment [4] were below 4.30 and 5.27, respectively. The compound further had a Relative potency in experiment [2] of 0.001.

With `O=C(O)CCC/C=C1/C[C@H]2C[C@@H](O)[C@H](/C=N/NC(=O)Nc3cccc(Cl)c3)[C@H]2C1`, the CF in experiment [1] was 0.2. For the same compound, the Relative potency in experiment [2] was determined as 0.25.

With `O=C(O)CCC/C=C1\C[C@H]2C[C@@H](O)[C@H](/C=N/OCc3ccccc3)[C@H]2C1`, the CF in experiment [1] is above 1000; in experiment [5] it was 7. Further, the pIC50 in experiment [6] was 5.70; in experiment [4], 5.72. The Relative potency in experiment [2] turned out to be 0.009.

Turning to `O=C(O)CCC/C=C1\C[C@H]2CC[C@H](/C=N/NC(=O)Nc3cccc(Cl)c3)[C@H]2C1`, in experiment [1], the CF is 16. In experiment [2], this compound returned a Relative potency of 0.0007.

Consider `O=C(O)CCC/C=C1\C[C@H]2C[C@@H](O)[C@H](/C=N\OC(c3ccccc3)c3ccccc3)[C@H]2C1`, for which the CF in experiment [1] is 95; in experiment [5] it was 160. Moreover, the values for the pIC50 in experiment [6] and in experiment [4] were 6.00 and 5.80, respectively. This compound also came in with a Relative potency in experiment [2] of 0.03.

In the case of `O=C(O)COC/C=C1/C[C@H]2C[C@@H](O)[C@H](/C=N/NC(=O)Nc3cccc(Cl)c3)[C@H]2C1`, the CF in experiment [1] was 4. The Relative potency in experiment [2] stood at 0.11.

In the case of `O=C(O)CCC/C=C1/C[C@H]2C[C@@H](O)[C@H](/C=N/NC(=O)Nc3ccc([N+](=O)[O-])cc3)[C@H]2C1`, in experiment [1], the CF turned out to be 0.1. Moreover, the Relative potency in experiment [2] was determined as 0.33.

Regarding `O=C(O)CC/C=C1\C[C@H]2C[C@@H](O)[C@H](/C=N/NC(=O)Nc3ccc(Cl)c(Cl)c3)[C@H]2C1`, the CF in experiment [1] amounted to 16. Also, the Relative potency in experiment [2] came out at 0.008.

For the compound `O=C(O)CCC/C=C1\C[C@H]2C[C@@H](O)[C@H](/C=N/OCc3ccc(F)cc3)[C@H]2C1`, the figures for the CF in experiment [1] and in experiment [5] were above 1000 and 20, respectively. Moreover, the figures for the negative logarithm of the IC50 (pIC50) in experiment [6] and in experiment [4] were 5.82 and 5.72, respectively. Also, the Relative potency in experiment [2] was found to be 0.009.

`O=C(O)CCC/C=C1/C[C@H]2CC[C@H](/C=N/NC(=O)Nc3ccc(Cl)c(Cl)c3)[C@H]2C1`: the CF in experiment [1] amounted to 1.6. In experiment [2], this compound yielded a Relative potency of 0.003.

For the compound `O=C(O)CC/C=C1\C[C@H]2C[C@@H](O)[C@H](/C=N/NC(=O)Nc3ccc([N+](=O)[O-])cc3)[C@H]2C1`, the CF in experiment [1] was 22. Besides, the Relative potency in experiment [2] came to 0.027.

`O=C(O)CCC/C=C1\C[C@H]2C[C@@H](O)[C@H](/C=N/NC(=O)Nc3ccc([N+](=O)[O-])cc3)[C@H]2C1`: the CF in experiment [1] was determined as 0.7. This compound gave a Relative potency in experiment [2] of 0.1.

On to `O=C(O)CCC/C=C1\C[C@H]2C[C@@H](O)[C@H](/C=N/OCc3ccc4ccccc4c3)[C@H]2C1`, for which the CF in experiment [1] stood at 280; in experiment [5], 31. In addition, the negative-log IC50 (pIC50) is 5.96 in experiment [6] and 5.80 in experiment [4]. Besides, the Relative potency in experiment [2] was found to be 0.03.

Turning to `O=C(O)CCC/C=C1\C[C@H]2CC[C@H](/C=N/NC(=O)Nc3ccc(Cl)c(Cl)c3)[C@H]2C1`, in experiment [1], the CF was found to be 4.3. This compound displayed a Relative potency in experiment [2] of 0.002.

Consider `O=C(O)CC/C=C1/C[C@H]2C[C@@H](O)[C@H](/C=N/NC(=O)Nc3ccc([N+](=O)[O-])cc3)[C@H]2C1`, for which the CF in experiment [1] is 0.5. The compound also came in with a Relative potency in experiment [2] of 8.3.

In the case of `O=C(O)CCC/C=C1/C[C@H]2C[C@@H](O)[C@H](/C=N/OCc3ccc4ccccc4c3)[C@H]2C1`, the CF in experiment [1] was 90; in experiment [5], 76. The compound also returned a Relative potency in experiment [2] of 0.002. Besides, in experiment [4], the negative-log IC50 (pIC50) was 5.66.

On to `O=C(O)CCC/C=C1/C[C@H]2C[C@@H](O)[C@H](/C=N/NC(=O)Nc3ccc(Cl)c(Cl)c3)[C@H]2C1`, for which the CF in experiment [1] was 0.1. This compound also registered a Relative potency in experiment [2] of 1.

In the case of `O=C(O)CCC/C=C1/C[C@H]2C[C@@H](O)[C@H](/C=N/NC(=O)Nc3ccccc3)[C@H]2C1`, the CF in experiment [1] is 1.5. The same compound gave a Relative potency in experiment [2] of 0.17.

The values are drawn from ChEMBL document CHEMBL1151568, “New TXA2/PGH2 receptor antagonists based on the carbacyclin skeleton” (Bioorg Med Chem Lett, 1993).
